Columns and labels:
[1] = system: H3K9 and H3K27 acetylation (class I HDACs); assay: Western blotting of H3K9 and H3K27 acetylation in 4TO7 cells; format: cell-based, mouse; conditions: 10^–5 M, 6 h, western blot
Method: The hybrids were assessed to determine their HDACi and VDR agonist activity as well as their antiproliferative properties relative to DK-406. HDACi activity was assessed in vitro using an acetylated lysine substrate that releases a fluorescent reporter upon HDACi deacetylation and subsequent trypsin digestion. Increasing sidechain length of pyrimidine hybrids enhanced the potency of HDAC6 inhibition, with several compounds inhibiting HDAC6 with a sub-micromolar IC50, similar to that of DK-406 (Fig. 4a). […] Next, we analyzed the effects of compounds on levels of H3K9 and H3K27 acetylation in 4TO7 cells, which are controlled by class I HDACs[29],[30]. […] We also tested the capacity of analogues to induce tubulin acetylation, controlled by class II enzyme HDAC6[32], in 4TO7 cells. […]
Figure 4 (a) Results of in vitro assays for inhibition of purified HDAC2 and HDAC6 by DK-406 and heterocyclic hybrids as measured by inhibition of deacetylation of a fluorometric substrate (see Methods for details). […]
After treatments, 4T07 cells were solubilized in Lysis Buffer (20 mM Tris, pH 8, 150 mM NaCl, 1% Triton X-100, 3,5 mM SDS, 13 mM deoxycholic acid) and proteins extracted were separated on a 4–15% Tris/Glycine/SDS gel (BIO RAD). […] Signal was detected using Clarity ECL chemiluminescent substrates (Bio-Rad) and ChemiDoc Imaging System from the same company was used to quantify the intensity of bands. […]

[2] = system: 4TO7 cells; assay: RNAseq gene expression profiling in 4TO7 cells; format: cell-based, mouse; conditions: relative to control
Method: Cells were treated for 6 h to focus more on genes directly regulated by the VDR, or for 24 or 48 h to gain insight into longer-term effects on gene expression.
McGill Genome Centre performed a quality control before sequencing in paired-end at 50 M reads by Illumina NovaSeq 6000 S4 PE100. Sets of genes regulated in the different conditions were sent to us and downstream analysis were performed.
Table S1 and Table S2 : See Excel files with RNAseq results and analysis
48 hours prior to RNA extraction. Samples were prepared in triplicate and run on Illumina NovaSeq 6000 S4
PE100. For assessing differential gene expression for RNAseq data, the LIMMA package inR was used.
RNAseq results and statistical analyses from D, S, S+D, DK-406, and AM-193 conditions measured relative to
AM-193 for 6 or 24 hours prior to RNA extraction . Samples were prepared in triplicate and run on Illumina
NovaSeq 6000 S4 PE100. For assessing differential gene expression for RNAseq data, the LIMMA package in R was […]

[3] = 6 h, RNAseq Supplemental table 2, 1 µM AM-193, 10 µM DK-406, 100 nM 1,25D and SAHA
[4] = RNAseq Supplemental table 2, 1 µM AM-193, 10 µM DK-406, 100 nM 1,25D and SAHA
[5] = 6 h, RNAseq Supplemental table 1
[6] = 48 h, RNAseq Supplemental table 1

| Structure (SMILES) | H3 acetylation at K9 and K27 [1] | Aaas 6h Log Fold [2, 3] | Aacs 6h Log Fold [2, 3] | Aagab 6h Log Fold [2, 3] | Aak1 6h Log Fold [2, 3] | Aamdc 6h Log Fold [2, 3] | Aaas 24h Log Fold [2, 4] | Aacs 24h Log Fold [2, 4] | Aagab 24h Log Fold [2, 4] | Aak1 24h Log Fold [2, 4] | Aamdc 24h Log Fold [2, 4] | also measured |
| --- | --- | --- | --- | --- | --- | --- | --- | --- | --- | --- | --- | --- |
| CCC(CC)(c1ccc(OCCCCCC(=O)NO)cc1)c1ccc(OCC(O)C(C)(C)C)c(C)n1 (centres unmarked) [AM-193] | enhanced H3 acetylation, although to a lesser degree than DK-406 | -0.023 | 0.016 | 0.124 | 0.035 | -0.120 | -0.051 | 0.142 | 0.131 | 0.036 | -0.210 |  |
| CCC(CC)(c1ccc(C(=O)NCCCCCC(=O)NO)cc1)c1ccc(OCC(O)C(C)(C)C)c(C)c1 (centres unmarked) [DK-406] | induced H3 acetylation at K9 and K27 | 0.00118 | -0.179 | -0.076 | 0.090 | -0.107 | -0.047 | 0.139 | 0.108 | 0.086 | -0.190 | Aaas 6h Log Fold [2, 5]: 1.019; Aacs 6h Log Fold [2, 5]: 1.048; Aaed1 6h Log Fold [2, 5]: -1.030; Aagab 6h Log Fold [2, 5]: -1.033; Aak1 6h Log Fold [2, 5]: 1.122; Aaas 48h Log Fold [2, 6]: -1.331; Aacs 48h Log Fold [2, 6]: 1.275; Aaed1 48h Log Fold [2, 6]: -1.421; Aagab 48h Log Fold [2, 6]: 1.489; Aak1 48h Log Fold [2, 6]: -1.002 |

Source: paper PMC9038752, “Molecular mechanisms of bifunctional vitamin D receptor agonist-histone deacetylase inhibitor hybrid molecules in triple-negative breast cancer” (Scientific Reports, 2022)
